Our source for the Ki values is US9914732B2, “Diazabicyclo[4.3.1]decane derivatives for treatment of psychiatric disorders” (Max-Planck-Gesellschaft zur Forderung der Wissenschaften …, priority 2014, dated 2018).

For one assay, the target named is T1, FKBP52 (Homo sapiens, UniProt Q02790).
T1 sequence (Q02790 50-138 limits assumed): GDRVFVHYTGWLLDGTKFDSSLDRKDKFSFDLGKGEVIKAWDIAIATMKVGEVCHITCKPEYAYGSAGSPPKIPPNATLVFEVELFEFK
In words: Fluorescence polarization (FP) assay, binding to the FK506-binding domain of FKBP52. As to conditions: FK506-binding domain of FKBP52 (FKBP52FK1), competition with fluorescent ligand 2b. A digest of the protocol: (§1)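 Competitive FP with fluorescent ligand 2b at 20 nM (2× concentration) and FK1 domain at 280 nM (FKBP51) or 400 nM (FKBP52) in 20 mM HEPES pH 8, 0.01% Triton-X100. Anisotropy read after 30 min at room temperature (ex 485, em 535 nm), in duplicate; IC50 by four-parameter fit, Ki via Wang competitive equation.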
For orientation: In fluorescence polarisation assays a small probe gives low polarisation when free and higher when bound to something large.

A further assay addresses T2, FKBP51 (Homo sapiens, UniProt Q13451).
T2 sequence (Q13451 42-130 limits assumed): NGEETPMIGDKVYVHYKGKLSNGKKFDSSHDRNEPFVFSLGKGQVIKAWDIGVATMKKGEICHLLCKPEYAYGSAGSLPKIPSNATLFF
In words: Fluorescence polarization (FP) assay, binding to the FK506-binding domain of FKBP51. As to conditions: FK506-binding domain of FKBP51 (FKBP51FK1), competition with fluorescent ligand 2b. A digest of the protocol: as §1

On to `C=CC1CN(Cc2ccccn2)C(=O)C2CCCC1N2S(=O)(=O)c1ccc(-c2ncccn2)cc1` (stereo in doubt) [Compound K28, (1S,5R,6R)-3-(pyridin-2-ylmethyl)-10-((4-(pyrimidin-2-yl)phenyl)sulfonyl)-5-vinyl-3,10-diazabicyclo[4.3.1]decan-2-one], for which the inhibition constant Ki on FKBP52 and on FKBP51 was ≤ 100 nM in each case.

Consider `COc1ccc(OCCN2C[C@H](C[C@H](C)O)C3CCCC(C2=O)N3S(=O)(=O)c2cc(Cl)cc(Cl)c2)cc1OC` (single isomer, unassigned) [Compound D4], for which the inhibition constant (Ki) on FKBP52 and on FKBP51 was ≤ 100 nM each time.

`COC[C@H]1CN(Cc2cnn[nH]2)C(=O)[C@@H]2CCC[C@H]1N2S(=O)(=O)c1ccc(NC(C)=O)c(Br)c1` [Compound N22, N-(4-(((1S,5S,6R)-3-((1H-1,2,3-triazol-5-yl)methyl)-5-(methoxymethyl)-2-oxo-3,10-diazabicyclo[4.3.1]decan-10-yl)sulfonyl)-2-bromophenyl)acetamide]: the Ki on FKBP52 and at FKBP51 was ≤ 100 nM throughout.

As for `C=CC1CN(Cc2ccccn2)C(=O)C2CCCC1N2S(=O)(=O)c1cccc(Cl)c1` (stereo in doubt) [Compound K11, (1S,5R,6R)-10-((3-chlorophenyl)sulfonyl)-3-(pyridin-2-ylmethyl)-5-vinyl-3,10-diazabicyclo[4.3.1]decan-2-one], the Ki at FKBP52 and on FKBP51 was 100 to 500 nM in each case.

As to `COCC1CN(Cc2ccccn2)C(=O)C2CCCC1N2S(=O)(=O)c1cc(Cl)cc(Cl)c1` (stereo in doubt) [Compound M5, (1S,5R,6R)-10-((3,5-dichlorophenyl)sulfonyl)-5-(methoxymethyl)-3-(pyridin-2-ylmethyl)-3,10-diazabicyclo[4.3.1]decan-2-one], the Ki at FKBP52 and on FKBP51 was ≤ 100 nM each time.

Consider `C#CCN1C[C@H](COC)[C@H]2CCC[C@@H](C1=O)N2S(=O)(=O)c1cccc(C(=O)OC)c1` [Compound N10, methyl 3-(((1S,5S,6R)-5-(methoxymethyl)-2-oxo-3-(prop-2-yn-1-yl)-3,10-diazabicyclo[4.3.1]decan-10-yl)sulfonyl)benzoate], for which the inhibitory constant (Ki) on FKBP52 and at FKBP51 was 100 to 500 nM throughout.

On to `COc1ccc(OCCN2CCC3CCCC(C2=O)N3S(=O)(=O)c2cc(Cl)cc(Cl)c2)cc1OC` (centres unmarked) [Ref. 1, reference compound], for which the inhibitory constant (Ki) on FKBP52 and at FKBP51 was 1000 to 5000 nM each time.

In the case of `COC[C@H]1CN(Cc2cnn[nH]2)C(=O)[C@@H]2CCC[C@H]1N2S(=O)(=O)c1cc(Cl)cc(C(N)=O)c1` [Compound N21, 3-(((1S,5S,6R)-3-((1H-1,2,3-triazol-5-yl)methyl)-5-(methoxymethyl)-2-oxo-3,10-diazabicyclo[4.3.1]decan-10-yl)sulfonyl)-5-chlorobenzamide], the Ki on FKBP52 and on FKBP51 was ≤ 100 nM in each case.

For the compound `C=C[C@@H]1CN(CC(=O)OCC)C(=O)[C@@H]2CCC[C@H]1N2S(=O)(=O)c1cc(Cl)cc(Cl)c1` [Compound J9, ethyl 2-((1S,5R,6R)-10-((3,5-dichlorophenyl)sulfonyl)-2-oxo-5-vinyl-3,10-diazabicyclo[4.3.1]decan-3-yl)acetate], the Ki at FKBP52 and on FKBP51 was 100 to 500 nM in each case.

On to `COC[C@H]1CN(Cc2cnn[nH]2)C(=O)[C@@H]2CCC[C@H]1N2S(=O)(=O)c1ccc(-c2ccccc2)nc1` [Compound N26, (1S,5S,6R)-3-((1H-1,2,3-triazol-5-yl)methyl)-5-(methoxymethyl)-10-((6-phenylpyridin-3-yl)sulfonyl)-3,10-diazabicyclo[4.3.1]decan-2-one], for which the Ki on FKBP52 and on FKBP51 was ≤ 100 nM each time.

On to `COCCO[C@H]1CN(CCOC)C(=O)[C@@H]2CCC[C@H]1N2S(=O)(=O)c1cc(Cl)cc(Cl)c1` [Compound H2.1, (1S,5S,6R)-10-((3,5-dichlorophenyl)sulfonyl)-5-(2-methoxyethoxy)-3-(2-methoxyethyl)-3,10-diazabicyclo[4.3.1]decan-2-one], for which the inhibitory constant (Ki) at FKBP52 and on FKBP51 was 100 to 500 nM in each case.

For the compound `C=CC1CN(Cc2ccccn2)C(=O)C2CCCC1N2S(=O)(=O)c1cc(Cl)cc(Cl)c1` (stereo in doubt) [Compound J4, (1S,5R,6R)-10-((3,5-dichlorophenyl)sulfonyl)-3-(pyridin-2-ylmethyl)-5-vinyl-3,10-diazabicyclo[4.3.1]decan-2-one], the inhibition constant (Ki) at FKBP52 and at FKBP51 was 100 to 500 nM in each case.

In the case of `COCCCCN1C[C@@H](CO)[C@H]2CCC[C@@H](C1=O)N2S(=O)(=O)c1cc(Cl)cc(Cl)c1` [Compound J7, (1S,5R,6R)-10-((3,5-dichlorophenyl)sulfonyl)-5-(hydroxymethyl)-3-(4-methoxybutyl)-3,10-diazabicyclo[4.3.1]decan-2-one], the Ki at FKBP52 and at FKBP51 was 500 to 1000 nM each time.

`C#CCN1C[C@H](COC)[C@H]2CCC[C@@H](C1=O)N2S(=O)(=O)c1ccc(NC(C)=O)c(Br)c1` [Compound N7, N-(2-bromo-4-(((1S,5S,6R)-5-(methoxymethyl)-2-oxo-3-(prop-2-yn-1-yl)-3,10-diazabicyclo[4.3.1]decan-10-yl)sulfonyl)phenyl)acetamide]: the inhibition constant (Ki) on FKBP52 and at FKBP51 was 100 to 500 nM each time.

For the compound `COC[C@H]1CN(Cc2cnn[nH]2)C(=O)[C@@H]2CCC[C@H]1N2S(=O)(=O)c1cccc(F)c1` [Compound N17, (1S,5S,6R)-3-((1H-1,2,3-triazol-5-yl)methyl)-10-((3-fluorophenyl)sulfonyl)-5-(methoxymethyl)-3,10-diazabicyclo[4.3.1]decan-2-one], the Ki at FKBP52 and at FKBP51 was ≤ 100 nM each time.

On to `C=CC1CN(Cc2ccccn2)C(=O)C2CCCC1N2S(=O)(=O)c1ccc(NC(C)=O)c(Br)c1` (stereo in doubt) [Compound K20, N-(2-bromo-4-(((1S,5R,6R)-2-oxo-3-(pyridin-2-ylmethyl)-5-vinyl-3,10-diazabicyclo[4.3.1]decan-10-yl)sulfonyl)phenyl)acetamide], for which the Ki on FKBP52 and at FKBP51 was 100 to 500 nM in each case.

Take `COC[C@H]1CN(Cc2cnn[nH]2)C(=O)[C@@H]2CCC[C@H]1N2S(=O)(=O)c1nc2ccccc2[nH]1` [Compound N28, (1S,5S,6R)-3-((1H-1,2,3-triazol-5-yl)methyl)-10-((1H-benzo[d]imidazol-2-yl)sulfonyl)-5-(methoxymethyl)-3,10-diazabicyclo[4.3.1]decan-2-one]: the inhibition constant Ki on FKBP52 and on FKBP51 was ≤ 100 nM in each case.

Regarding `C=C[C@@H]1CN(Cc2ccccn2)C(=O)[C@@H]2CCC[C@H]1N2S(=O)(=O)c1cc(Br)cc(C(N)=O)c1` [Compound K18, 3-bromo-5-(((1S,5R,6R)-2-oxo-3-(pyridin-2-ylmethyl)-5-vinyl-3,10-diazabicyclo[4.3.1]decan-10-yl)sulfonyl)benzamide], the inhibition constant Ki at FKBP52 and at FKBP51 was 100 to 500 nM each time.

Turning to `COCO[C@H]1CNC(=O)[C@@H]2CCC[C@H]1N2S(=O)(=O)c1cc(Cl)cc(Cl)c1` [Compound H2.2, (1S,5S,6R)-10-((3,5-dichlorophenyl)sulfonyl)-5-(methoxymethoxy)-3,10-diazabicyclo[4.3.1]decan-2-one], the Ki on FKBP52 and at FKBP51 was 500 to 1000 nM throughout.

Regarding `COC[C@H]1CN(Cc2cnn[nH]2)C(=O)[C@@H]2CCC[C@H]1N2S(=O)(=O)c1cc(Br)cc(Br)c1` [Compound N18, (1S,5S,6R)-3-((1H-1,2,3-triazol-5-yl)methyl)-10-((3,5-dibromophenyl)sulfonyl)-5-(methoxymethyl)-3,10-diazabicyclo[4.3.1]decan-2-one], the inhibitory constant (Ki) at FKBP52 and on FKBP51 was ≤ 100 nM each time.

As to `C#CCN1CC(C=C)C2CCCC(C1=O)N2S(=O)(=O)c1cc(Cl)cc(Cl)c1` (stereo in doubt) [Compound J12, (1S,5R,6R)-10-((3,5-dichlorophenyl)sulfonyl)-3-(prop-2-yn-1-yl)-5-vinyl-3,10-diazabicyclo[4.3.1]decan-2-one], the Ki on FKBP52 and on FKBP51 was 100 to 500 nM each time.

Consider `C=C[C@@H]1CN(Cc2ccncn2)C(=O)[C@@H]2CCC[C@H]1N2S(=O)(=O)c1cc(Cl)cc(Cl)c1` [Compound J15, (1S,5R,6R)-10-((3,5-dichlorophenyl)sulfonyl)-3-(pyrimidin-4-ylmethyl)-5-vinyl-3,10-diazabicyclo[4.3.1]decan-2-one], for which the inhibition constant (Ki) on FKBP52 and on FKBP51 was 100 to 500 nM each time.

Take `C=CC1CN(Cc2c[nH]nn2)C(=O)C2CCCC1N2S(=O)(=O)c1cc(Cl)cc(Cl)c1` (stereo in doubt) [Compound J13, (1S,5R,6R)-3-((1H-1,2,3-triazol-4-yl)methyl)-10-((3,5-dichlorophenyl)sulfonyl)-5-vinyl-3,10-diazabicyclo[4.3.1]decan-2-one]: the Ki at FKBP52 and at FKBP51 was ≤ 100 nM throughout.

In the case of `C#CCN1C[C@H](COC)[C@H]2CCC[C@@H](C1=O)N2S(=O)(=O)c1cc(Cl)c(NC(C)=O)c(Cl)c1` [Compound N9, N-(2,6-dichloro-4-(((1S,5S,6R)-5-(methoxymethyl)-2-oxo-3-(prop-2-yn-1-yl)-3,10-diazabicyclo[4.3.1]decan-10-yl)sulfonyl)phenyl)acetamide], the Ki at FKBP52 and on FKBP51 was 100 to 500 nM in each case.

In the case of `C=C[C@@H]1CN(Cc2ccccn2)C(=O)[C@@H]2CCC[C@H]1N2S(=O)(=O)c1ccc2[nH]c(=O)sc2c1` [Compound K4, 6-(((1S,5R,6R)-2-oxo-3-(pyridin-2-ylmethyl)-5-vinyl-3,10-diazabicyclo[4.3.1]decan-10-yl)sulfonyl)benzo[d]thiazol-2(3H)-one], the inhibitory constant (Ki) at FKBP52 and at FKBP51 was ≤ 100 nM in each case.
